Conditions: Fluid (supercritical or subcritical phases)

O=C=O [carbon dioxide]
mass density [kg/m3]
Conditions | 10000 kPa | 12000 kPa | 15000 kPa | 18000 kPa | 21000 kPa
308 K | 714.84 | 768.42 | 816.06 | 848.87 | 874.4
318 K | 502.57 | 659.73 | 743.17 | 790.18 | 823.71
328 K | 326.4 | 506.85 | 654.94 | 724.13 | 768.74
